Source: patent US9873715B2, “Macrolides useful as anticancer agents” (PIERRE FABRE MEDICAMENT, priority 2013, dated 2018)

Legend:
Format in all cases: cell-based
[1] = system: KB-V1: vinblastine-resistant human cervix carcinoma cell line; assay: cell survival (ATP-lite luminescence), KB-V1; settings: KB-V1, 48 hours incubation, read-out: EC50 for various tumor cell lines: KB-V1
Experimental: (§1) Molecules (I-1), (I-2) and (I-3) were identified during a test of antiproliferative activity on a metastatic melanoma cell line, WM266-4.
(§2) The cells are seeded in 96-well plates in phenol red-free RPMI 1640 medium (Seromed) to which is added 10% fetal calf serum (100 μl/well, 1·10^4 to 3·10^4 cells/ml depending on the line studied). After incubation for 24 hours at 37° C. in an incubator (5% CO2), the medium is replaced with the same medium further containing the compound to be tested (various concentrations are used) and then the plates are incubated for an additional 48 hours. Cell survival is evaluated by measuring luminescence after ATP release in the medium using the cell lysis solutions, luciferase and luciferin, included in the ATP-lite-M™ kit as recommended by the manufacturer (Packard, Rungis, France). Each experimental condition was tested at least three times in sextuplicate.

[2] = system: LoVo: human colon adenocarcinoma cell line; assay: cell survival (ATP-lite luminescence), LoVo; settings: 48 hours incubation, read-out: EC50 for various tumor cell lines: LoVo
Experimental: as §1, §2

[3] = system: BxPC3: human pancreatic adenocarcinoma cell line; assay: cell survival (ATP-lite luminescence), BxPC3; settings: BXPC-3, BxPC3, 48 hours incubation, read-out: EC50 for various tumor cell lines: BxPC3
Experimental: as §1, §2

[4] = system: A549: human lung adenocarcinoma cell line; assay: cell survival (ATP-lite luminescence), A549; settings: A549, 48 hours incubation, read-out: EC50 for various tumor cell lines: A549
Experimental: as §1, §2

[5] = system: SkoV3: human ovarian adenocarcinoma cell line; assay: cell survival (ATP-lite luminescence), SkoV3; settings: SK-OV-3, SkoV3, 48 hours incubation, read-out: EC50 for various tumor cell lines: SkoV3
Experimental: as §1, §2

[6] = system: Namalwa: Burkitt lymphoma cell line; assay: cell survival (ATP-lite luminescence), Namalwa; settings: 48 hours incubation, read-out: EC50 for various tumor cell lines: Namalwa
Experimental: as §1, §2

[7] = system: KB: human oral carcinoma cell line; assay: cell survival (ATP-lite luminescence), KB; settings: 48 hours incubation, read-out: EC50 for various tumor cell lines: KB
Experimental: as §1, §2

Q: For `COCC1OC(OC2CC(OC)CC3C2C(C)=CC2/C=C/C=C/C(C)C(/C=C/c4nc(C(C)CCCC#N)oc4C)OC(=O)CC/C=C(C)\C=C\C23C)C(OC)C(O)C1O` (stereo not drawn) [Molecule (I-1)], which EC50 [1] is on record?
A: The EC50 was 0.7 nM.

Q: What about the EC50 [2] of the same molecule?
A: The EC50 was 0.04 nM.

Q: And the EC50 [3]?
A: The EC50 was 0.22 nM.

Q: What about the EC50 [4] of the same molecule?
A: The EC50 was 0.011 nM.

Q: And the EC50 [5]?
A: Its EC50 is 36000 nM.

Q: What about the EC50 [6] of the same molecule?
A: Its EC50 is 0.31 nM.

Q: And the EC50 [7]?
A: The EC50 was 0.31 nM.

Q: With `COCC1OC(OC2CC(OC)CC3C2C(C)=CC2/C=C/C=C/C(C)C(/C=C/c4nc(C(C)CCCC#N)oc4C)OC(=O)CC/C=C(C)\C=C\C23C)C(OC)C(OC2OCC(OC)C(O)C2O)C1O` (stereo not drawn) [Molecule (I-2)] as the molecule, how does the EC50 [1] read?
A: The EC50 was 0.49 nM.

Q: And the EC50 [2]?
A: The EC50 was 0.011 nM.

Q: What about the EC50 [3] of the same molecule?
A: The EC50 was 0.21 nM.

Q: What about the EC50 [4] of the same molecule?
A: The EC50 was < 0.001 nM.

Q: And the EC50 [5]?
A: The EC50 was 1300 nM.

Q: And the EC50 [6]?
A: Its EC50 is 0.36 nM.

Q: What about the EC50 [7] of the same molecule?
A: The EC50 was 0.3 nM.

Q: Which results are given for `CNC(=O)OC1C(OC)COC(OC2C(O)C(COC)OC(OC3CC(OC)CC4C3C(C)=CC3/C=C/C=C/C(C)C(/C=C/c5nc(C(C)CCCC#N)oc5C)OC(=O)CC/C=C(C)\C=C\C34C)C2OC)C1O` (stereo not drawn) [Molecule (I-3)]?
A: EC50 [1]: 0.73 nM; EC50 [2]: < 0.01 nM; EC50 [3]: 0.012 nM; EC50 [4]: < 0.001 nM; EC50 [5]: 320 nM; EC50 [6]: 0.32 nM; EC50 [7]: 0.024 nM
